From the OPERA property sets (Mansouri et al. 2018)
Where a SMILES comes first, the peptide text is derived from it. [ ]: non-standard residue; d: D form. The star is where a group is joined. Orn = NCCC[CH](N)C(=O)O; Boc = CC(C)(C)OC(=O)*

In order of rising logP:
1. O=c1ccn(C2C=C(CO)C(O)C2O)c(=O)[nH]1 (stereo not drawn)  -2.19
2. O=c1nc(N=CN2CCOCC2)ccn1C1CC(O)C(CO)O1 (stereo not drawn)  -1.54
3. O=[N+]([O-])c1nccn1COC(CO)C(O)CO (stereo not drawn)  -1.47
4. O=[N+]([O-])C=C1NCCN1Cc1ccncc1  -1.05
5. COC1CC(OC2CCC3(C=O)C4CCC5(C)C(C6=CC(=O)OC6)CCC5(O)C4CCC3(O)C2)OCC1OC1CC(O)C(O)C(C)O1 (stereo not drawn)  -0.96
6. CC(=O)OCC(O)Cn1ccnc1[N+](=O)[O-] (stereo not drawn)  -0.37
7. Nc1nc(=O)n(C2CCC(CO)O2)cc1I (stereo not drawn)  -0.31
8. O=[N+]([O-])c1ncn(CC(F)(F)CO)n1  -0.21
9. O=C(Cn1c(=O)sc2ccc(Cl)cc21)N1CC[N+]([O-])(CCO)CC1  0.05
10. NC(=O)C(=Cc1ccc([N+](=O)[O-])o1)c1ccco1  0.15
11. Nc1ccccc1S(N)(=O)=O  0.22
12. O=c1[nH]c(Nc2ccccc2)nc2c1ncn2CC(O)CO (stereo not drawn)  0.4
13. CC(=O)NC(CCCN)C(=O)NC(Cc1ccccc1)C(=O)NC(CC(C)C)C(N)=O (stereo not drawn) (Ac-[Orn]-Phe-Leu-NH2; configuration not given here)  0.54
14. Cn1c([N+](=O)[O-])cnc1Cc1ccc(C(N)=O)cc1  0.55
15. CCN(CC)CCSC(=NO)c1nc(C)no1  0.71
16. CC(C)CN1C(=O)NC(=O)C(=O)C1=O  0.76
17. CC(C)(C)C(=O)OCn1cc2c(=O)[nH]cnc2n1  0.79
18. CCC1COC(Cn2cncn2)(c2ccc(C(=N)N)cc2)O1 (stereo not drawn)  0.85
19. CC(C)(C)n1ccnc1C=NO  0.85
20. O=[N+]([O-])C=C1NCCN1Cc1ccc(Cl)cc1  0.99
21. CCCC(C)C(=O)OCC1CCC(n2cnc3c(=O)[nH]cnc32)O1 (stereo not drawn)  1
22. OCc1ccc(O)c2ncccc12  1
23. Cn1c([N+](=O)[O-])cnc1-c1ccc(N)cc1  1.06
24. CC(C)NCC(COc1cccc2ccccc12)OS(=O)(=O)O (stereo not drawn)  1.16
25. CN(C)N=Nc1nccs1  1.27
26. CC1CC2C3CCC4=CC(=O)C=CC4(C)C3(F)C(O)CC2(C)C1(O)C(N)=O (stereo not drawn)  1.41
27. Oc1ccc(O)c2ncccc12  1.42
28. CC1CC2C3CCC4=CC(=O)C=CC4(C)C3(F)C(O)CC2(C)C1(O)C(=O)NCC#N (stereo not drawn)  1.57
29. CCn1cc(C(=O)O)c(=O)c2ccc(C)nc21  1.59
30. CN(C)N=Nc1ccc(S(C)(=O)=O)cc1  1.59
31. CCCN1C(=O)C(=O)c2ccccc2C1=O  1.6
32. CNC(=NC#N)Nc1cccc(-c2csc(N=C(N)N)n2)c1  1.6
33. CN1C(C(=O)Nc2nccs2)=C(O)c2ccccc2S1(=O)=O  1.64
34. COc1ccc(OC)c(Cc2cnc(N)nc2N)c1  1.7
35. CC(C)(C)c1ccc2c(c1)OCCOCCOCCOCCOCCO2  1.71
36. Cc1ccc(-n2ccc(=O)c(O)c2C)cc1  1.72
37. CN(CCCn1ccnc1C=NO)S(=O)(=O)C(F)(F)F  1.77
38. COCCOCC1COC(Cn2cncn2)(c2ccc(Cl)cc2Cl)O1 (stereo not drawn)  2.03
39. CC(C)CN1C(=O)C(=O)c2ccccc2C1=O  2.08
40. Cc1cn(C2CC(N=[N+]=[N-])C(COC(=O)CNC(=O)C34CC5CC(CC(C5)C3)C4)O2)c(=O)[nH]c1=O (stereo not drawn)  2.1
41. COC(=O)CCCCC(S)CCS (stereo not drawn)  2.27
42. COC1(NC(=O)CSC(F)F)C(=O)N2C(C(=O)OCOC(=O)C(C)(C)C)=C(CSc3nnnn3C)CSC21 (stereo not drawn)  2.31
43. COC(=O)c1ccccc1CS(=O)(=O)Nc1nc(OC)cc(OC)n1  2.4
44. CC(=O)OC1(c2ccccc2)CCN(C)C(C)C1C (stereo not drawn)  2.52
45. C=C(C)c1c(OC)cc(Cc2cnc(N)nc2N)cc1OCC  2.65
46. CCNc1nc(NC)nc(SC(F)F)n1  2.68
47. CC(C)(C)OC(=O)NC(Cc1ccccc1)C(=O)NC(Cc1ccc(O)cc1)C(=O)O (stereo not drawn) (Boc-Phe-Tyr-OH; configuration not given here)  2.79
48. CCC1(C(C)c2ccccc2)C(=O)NC(=O)N(C)C1=O (stereo not drawn)  3.14
49. CC1OC(OC2C(C)OC(OC3C(C)OC(OC4CCC5(C)C(CCC6C5CCC5(C)C(C7=CC(=O)OC7)C(OC=O)CC65OC=O)C4)CC3OC=O)CC2OC=O)CC(O)C1OC=O (stereo not drawn)  3.16
50. CCCCOc1ccccc1NC(=O)OCCN1CCOCC1  3.25
51. FC(F)(F)C(F)(F)c1ccccc1  3.36
52. CCOC(=O)C(C)Oc1ccc(Oc2cnc3ccccc3n2)cc1 (stereo not drawn)  3.47
53. CC(C)(N=C(O)C(Br)C(C)(C)C)c1ccccc1 (stereo not drawn)  3.47
54. Fc1ccc(SCc2ccc(CCCN3CCOCC3)cc2)cc1  3.51
55. CCc1ccc(OCc2ccccc2CCCN2CCC(O)CC2)cc1  3.75
56. c1ccc(SCc2ccccc2CCCN2CCOCC2)cc1  3.8
57. CCCCc1ccc(C(=O)OCCN(C)C)cc1  4.06
58. CCOC(=O)C(C)Oc1ccc(Oc2cnc3cc(C)ccc3n2)cc1 (stereo not drawn)  4.11
59. Cc1ccccc1CO[C@H]1C[C@]2(C(C)C)CC[C@@]1(C)O2 (single isomer, unassigned)  4.62
60. CC1=C(/C=C/C(C)=C/C=C/C(C)=C/CO)C(C)(C)CCC1  5.68
61. CCCCCCC(C)(C)c1ccc(C2CC(O)CC3CCC(O)CC32)c(O)c1 (stereo not drawn)  6.13
62. Clc1cccc(-c2c(Cl)cc(Cl)c(Cl)c2Cl)c1Cl  7.25
63. Clc1cc(Cl)cc(-c2cc(Cl)c(Cl)c(Cl)c2Cl)c1  7.43
